Experiment [1] has as its system T1, G6PDH, hepatopancreas, 24 h anoxic (low phosphate form).
T1 construct: gene G6PD; native enzyme in Sephadex G-50 filtered hepatopancreas extract of 24 h anoxic snails; low phosphate form, same gene product as P1; not purified for kinetics
Kind of experiment: spectrophotometric NADPH production at […] nm. Type of experiment: biochemical, Littorina littorea. Particulars: pH 8.0, 50 mM Tris-HCl, 22 °C.

The test system of experiment [2] is T2, G6PDH, hepatopancreas, aerobic control (high phosphate form).
T2 construct: gene G6PD; native enzyme in Sephadex G-50 filtered hepatopancreas extract of aerobic control snails (bought at Kowloon Market, Ottawa); serine-phosphorylated, high phosphate form; not purified for kinetics
Put plainly: spectrophotometric NADPH production at […] nm. Type of experiment: biochemical, Littorina littorea. Particulars: pH 8.0, 50 mM Tris-HCl, 22 °C.

This is an account of results in publication PMC3628605, “Glucose-6-phosphate dehydrogenase regulation in the hepatopancreas of the anoxia-tolerant marine mollusc, Littorina littorea” (PeerJ, 2013).

What is called Km is the substrate concentration at which the rate is half of its maximum.

Molecules are shown by their SMILES.

Take `NC(=O)c1ccc[n+]([C@@H]2O[C@H](COP(=O)(O)OP(=O)(O)OC[C@H]3O[C@@H](n4cnc5c(N)ncnc54)[C@H](OP(=O)(O)O)[C@@H]3O)[C@@H](O)[C@H]2O)c1` [NADP^+]: the Km in experiment [1] (optimal G6P (4 mM)) was 115 ± 8 µM; in experiment [2] (optimal G6P (4 mM)), 117 ± 6 µM.

For `O=P(O)(O)OC[C@H]1OC(O)[C@H](O)[C@@H](O)[C@@H]1O` (stereo partly shown) [G6P], the Km amounted to 60 ± 3 µM in experiment [1] (optimal NADP+ (1.0 mM)) and 97 ± 6 µM in experiment [2] (optimal NADP+ (1.0 mM)).
